The record followed here is patent US20120009151A1, “Triazines And Related Compounds Having Antiviral Activity, Compositions And Methods Thereof” (priority 2007, published 2012).

Counter-ions that a name gives are not always drawn.

Test system in one data set: not given
Experiment: not given
Conditions: not given
As for `Fc1ccc(CNc2nc(OCC(F)(F)F)nc(-c3ccccc3)n2)cc1`, the melting point (usually the temperature, or range, at which the solid turns liquid) is 170 to 172 °C.
Still for that read-out and setting: then `Fc1ccc(CNc2nc(NCc3ccccc3F)nc(OCC(F)(F)F)n2)cc1`, with 105 to 107 °C; and `Fc1ccc(CNc2nc(OCC(F)(F)F)nc(Oc3cccc(C(F)(F)F)c3)n2)cc1`, with 107 to 109 °C; and `Fc1ccc(CNc2nc(OCc3ccccc3)nc(OCC(F)(F)F)n2)cc1`, with 101 to 103 °C.
Still for that read-out and setting: the result for `CC(C)N1CCC(Nc2nc(NCc3ccc(F)cc3)nc(OCC(F)(F)F)n2)C1` (stereo not shown) reads 98 to 99 °C; that for `CCOc1nc(NCc2ccco2)nc(N2CCN(Cc3ccccn3)CC2)n1`, 115 to 117 °C.
The same measure, in the same setting: then `Cc1ccc(CNc2nc(OCC(F)(F)F)nc(Oc3cccc(C(F)(F)F)c3)n2)o1`, with 116 to 118 °C.
On to `Oc1ccc(Nc2nc(NCc3ccco3)nc(Oc3ccc(O)cc3)n2)cc1`, for which the melting point lay in the range of 80 to 83 °C.
Still for that read-out and setting: the result for `Fc1ccc(CNc2nc(Nc3cccc(Cl)c3)nc(OCC(F)(F)F)n2)cc1` reads 148 to 150 °C.
The same measure, in the same setting: the result for `FC(F)(F)c1cccc(Nc2nc(NCc3ccco3)nc(OCc3ccncc3)n2)c1` reads 124 to 126 °C; that for `Oc1nc(NCc2ccc(F)cc2)nc(Nc2cccc(C(F)(F)F)c2)n1`, 266 to 268 °C; that for `CCNc1nc(NCCN2CCCC2)nc(Nc2ccc(OC)cc2)n1` (as salt: hydrochloride), 29 to 31 °C.

The subject of a further data set is H77/JFH-1 chimeric HCVcc. Description: HCV cell culture (HCVcc) model, Renilla luciferase. The conditions noted are these: H77/JFH-1 HCVcc, Huh 7.5 cells, Renilla luciferase 72 hours post-infection. The format is cell-based.
As to `C[C@@]1(O)[C@H](O)[C@@H](CO)O[C@H]1n1cnc2c(N)ncnc21` [Compound 2-CMA], the EC50 (commonly the concentration giving half of the maximal effect) stood at 0.092 µM.
